The subject of assay [1] is E. coli strain ATCC 25922. As to the kind of experiment: Neutropenic mouse thigh infection efficacy. Format: in vivo. Here is the method: Female CD-1 mice from Charles River Laboratories were allowed to acclimate for 5 days prior to start of study. Animals were housed four per cage with free access to food and water. Mice received two doses of cyclophosphamide on days −4 and −1 with 150 mg/kg and 100 mg/kg delivered IP, respectively. All procedures were performed to NeoSome IACUC policies and guidelines as well as OLAW standards.
E. coli strain ATCC 25922 was prepared for infection from an overnight plate culture. A portion of the plate was resuspended in sterile saline and adjusted to an OD of 0.15 at 625 nm. The adjusted bacterial suspension was further diluted to target an infecting inoculum of 1.5×10^5 CFU/mouse, the actual inoculum size for E. coli was 1.45×10^5 CFU/mouse. Plate counts of the inoculum was performed to confirm inoculum concentration.
Mice were inoculated with 100 μL of the prepared bacterial suspension via intramuscular injection into the right rear thigh.
Beginning at two hours post infection, mice were dosed with test agents subcutaneously at 10 mL/kg. A second dose of test agents was delivered at 6 hours post infection. For co-administered therapy, test agents were delivered separately at two different injection sites. Four animals were dosed per group. One group of four mice were euthanized at initiation of therapy (T=2 h) and CFUs determined. All remaining mice were euthanized at 26 hours post infection. At termination, thighs were aseptically excised, weighed, and homogenized to a uniform consistency in 2 mL of sterile saline. The homogenate was serially diluted and plated on bacterial growth media. The CFUs were enumerated after overnight incubation. The average and standard deviations for each group were determined.
Neutropenic mice infected with E. coli were treated with novobiocin, polymyxin B, or a combination of the two for the evaluation of efficacy is a thigh infection model.

Assay [2] deals with novobiocin-resistant A. baumannii 19606 gyrB(R150C) point mutant (Novo^R). Format: cell-based.
The next assay deals with lptB1. As to the kind of experiment: Minimum inhibitory concentration assay. It counts as cell-based, E. coli. Particulars: Escherichia coli, 15 h, read-out: Minimum inhibitory concentration. Here is the method: (§1) We wondered whether it would be possible to separate novobiocin's ability to suppress the IptFG(ch) defects in vivo from its activity against DNA gyrase, its presumed primary target. […] Minimum inhibitory concentrations were measured after a 15-hr incubation period at 37° C.
(§2) Overnight cultures were prepared by transferring 5 mL of sterile LB Miller media to culture tubes and inoculating with the corresponding organism. The tubes were allowed to shake at 220 rpm, 37° C. overnight. 15 μL of overnight culture was diluted in 15 mL of LB Miller in a Falcon tube and was vortexed to mix. In a 96-well plate, 100 μL of diluted culture was added to each well. To column #1, an additional 100 μL of diluted culture and test compound was added (93.7 μL culture+6.35 μL 10 mg/mL novobiocin) or (94.2 μL culture+5.87 μL 10 mg/mL 1-adamantyl-novobiocin) such that the highest concentration tested was 500 μM. Transferred 100 μL from column #1 into column #2, etc, and mixed each time thoroughly. Repeated serial dilution until column #11. Incubated the plate at 37° C. overnight (˜16 h) and read the turbidity (OD600) using a Spectramax 384 plus plate reader (Molecular Devices).

Another assay deals with wild type. As to the kind of experiment: Minimum inhibitory concentration assay. Particulars: Escherichia coli, 15 h, read-out: Minimum inhibitory concentration. Format: cell-based, E. coli. The protocol:
as §1, §2

The next assay concerns ΔtolC. As to the kind of experiment: Minimum inhibitory concentration assay. It counts as cell-based, E. coli. Particulars: Escherichia coli, 15 h, read-out: Minimum inhibitory concentration. Here is the method: as §1, §2
[3] abbreviates: Novobiocin 200 mg/kg (total 400) BID/SC.

The values below come from US11191773B2, “Methods of treatment for bacterial infections” (President and Fellows of Harvard College, priority 2017, dated 2021).

In brackets after ≈: the same amount, converted by molar mass. Entries after “also recorded” stand apart in the source; their conditions may differ.

Turning to `CO[C@@H]1[C@@H](OC(N)=O)[C@@H](O)[C@H](Oc2ccc3c(O)c(NC(=O)c4ccc(O)c(CC=C(C)C)c4)c(=O)oc3c2C)OC1(C)C` [Novobiocin, novobiocin], the “change in log10 CFU/g of thigh from 2 hour control” value in assay [1] (setting [3]) is on record as 3.58 log10 CFU/g of thigh. Further, in assay [1] (setting [3]), the “change in log10 CFU/g of thigh from 26 hour controls” value was −0.51 log10 CFU/g of thigh. The “activity against this isolate” value in assay [1] (Novobiocin delivered at 200 mg/kg) was “did not demonstrate significant activity”. Also, the “Average log10 CFU/g of thigh” value in assay [1] (neutropenic CD-1 mice, Novobiocin 200 mg/kg (total 400) BID/SC, 26 hours post infection) is 9.12 log10 CFU/g of thigh. For the same compound, the “synergy with PMBN” value in assay [2] (Novo^R A. baumannii) was “resistant to the same combination; also recorded: same synergy but at higher [novobiocin]”. In addition, in assay [2] (relative to wild type), the “resistance of gyrB(R150C) point mutant towards novobiocin” value worked out at 300 fold. Besides, the values for the MIC with lptB1, in the assay with wild type and in the assay with ΔtolC were less than 0.5 µM, 62.5 to 125 µM (≈ 38.3 to 76.6 µg/mL) and 2 µM (≈ 1.23 µg/mL), respectively.
